For data set [1] the following is noted: IV, cited from earlier work.
The conditions of data set [2]: race (Caucasian vs African American) or BMI.
A short description of data set [3]: clinical. The following applies: human, plasma, po, absolute bioavailability, oral administration.
For data set [4] the following is noted: injectable formulations (IV or IM or SC); cited from earlier work.

As a reminder, the bioavailability is the share of a dose that reaches the circulation, judged against a reference dose that is usually intravenous. A higher bioavailability goes with good availability. A word on the half-life: it is the time needed for the level to fall by half in the phase considered.

Where two headings read alike, the source gives them in different places.

Turning to `Cl.Oc1ccc2c3c1OC1[C@@H](O)CC[C@@]4(O)[C@@H](C2)N(CC2CCC2)CC[C@]314` (stereo partly drawn) [nalbuphine, 17-(cyclobutylmethyl)-4,5α-epoxymorphinian-3, 6α, 14-triol, hydrochloride], the volume of distribution entry in data set [1] (across the age groups) is on record as “comparable across the age groups”. In addition, the “elimination half-life (T½)” value in data set [1] (children between 1.5 and 8.5 yrs) was 0.9 h; in data set [1] (elderly subjects 65-90 yrs), 2.3 h; in data set [1] (young adults 23-32 yr of age) it was 1.96 h. Further, the “effect on CL/F due to race or BMI” value in data set [2] is listed as “no observable effect”. The bioavailability in data set [3] (non-elderly subjects) is 11%; in data set [3] (subjects aged older than 65 years) it was about 44%. In data set [4], the half-life is 2 to 3 h.
